The text below walks through data of patent publication US5550139A, “Serine protease inhibitors” (The Wichita State University, priority 1994, dated 1996).

Experiment [1] concerns the target T1, human leukocyte elastase (HLE) (Homo sapiens, UniProt P08246).
T1 construct: purchased Elastin Products Co., Owensville, Mo
T1 sequence (P08246 30-247 limits assumed): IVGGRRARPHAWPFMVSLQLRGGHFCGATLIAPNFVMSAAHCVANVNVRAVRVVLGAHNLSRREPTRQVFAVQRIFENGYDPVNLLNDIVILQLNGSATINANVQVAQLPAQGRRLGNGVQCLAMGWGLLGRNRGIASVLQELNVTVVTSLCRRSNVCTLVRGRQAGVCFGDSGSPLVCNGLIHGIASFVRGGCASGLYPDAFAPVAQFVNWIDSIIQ
Description: Inactivation of human leukocyte elastase (kobs/[I]). The class given is biochemical. The text has this: (§1) An in vitro assay can be used to screen compounds of the invention for the ability to reduce or inhibit serine proteinase activity. The human leukocyte elastase (HLE), cathepsin G (Cath G), and proteinase-3 assays have each been described (Groutas et al., J. Med. Chem. 32:1607-1611, 1989; Groutas et al., Arch. Biochem. Biophys. 294:144-146, 1992; Kao et al., J. Clin. Invest. 82:1963-1973, 1988, each incorporated by reference herein). The pseudo first-order inactivation rate constants (kobs) were obtained from plots of ln(vt /vo) vs t, and expressed in terms of the apparent second-order inactivation rate constant, kobs /[I] M^-1 s^-1 (Tables 1-7). Tables 1-7 disclose the activity of preferred compounds of the invention as inhibitors of HLE and Cath G. Table 7 discloses the activity of Compounds 4A (C) and 3E (D) as inhibitors of Proteinase-3 activity. Compounds (A) and (B) have been disclosed previously (Groutas et al., Bioorganic and Med. Chem. 1(4):273-277, 1993; Groutas et al., J. Med. Chem. 36:3178, 1993).
XII. Materials: Human leukocyte elastase was purchased from Elastin Products Co., Owensville, Mo.
(§2) Human leukocyte cathepsin G was obtained from Athens Research and Technology, Athens, Ga. Methoxysuccinyl Ala-Ala-Pro-Val p-nitroanilide and methoxysuccinyl Ala-Ala-Pro-Phe p-nitroanilide were purchased from Sigma Chemicals Co., St. Louis, Mo. Baker-analyzed 60-200 mesh silica gel was used for flash chromatography.

The next experiment deals with T2, cathepsin G (Cath G) (Homo sapiens, UniProt P08311).
T2 construct: purchased Athens Research and Technology, Athens, Ga
T2 sequence (P08311 21-244 limits assumed): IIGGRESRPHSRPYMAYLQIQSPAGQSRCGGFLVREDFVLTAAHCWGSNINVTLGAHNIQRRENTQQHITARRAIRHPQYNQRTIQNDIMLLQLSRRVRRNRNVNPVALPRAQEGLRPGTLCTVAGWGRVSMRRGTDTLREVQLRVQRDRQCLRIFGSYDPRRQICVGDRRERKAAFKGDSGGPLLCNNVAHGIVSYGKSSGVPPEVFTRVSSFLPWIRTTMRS
Description: Inactivation of human leukocyte cathepsin G (kobs/[I]). The experiment is classed as biochemical. The conditions noted are these: for kinact/KI: pH 7.5. The method, then: Human leukocyte cathepsin G (1.33 uM) is incubated with compound 8 (133 uM) (a) or compound 10 (13.3 uM) (b) in 0.1M HEPES buffer, pH 7.5, and 10% DMSO. Aliquots were withdrawn at different time intervals and assayed for enzymatic activity using methoxysuccinyl Ala-Ala-Pro-Phe p-nitroanilide.
Human leukocyte cathepsin G (1.48 μM was incubated with inhibitor 5A (1.48 μM in 0.1M HEPES buffer, pH 7.5, and 1% DMSO. Aliquots were withdrawn at different time intervals and assayed for enzymatic activity using methoxysuccinyl Ala-Ala-Pro-Phe p-nitroanilide.
as §1, §2

Molecules are shown by their SMILES.

In the case of `CN1[C@@H](Cc2ccccc2)C(=O)N(CF)S1(=O)=O` [Compound 2A, (S)-4-Benzyl-2-fluoromethyl-5-methyl-3-oxo-1,2,5-thiadiazolidine 1.1-dioxide], the kinact/KI in experiment [1] (Table 2) turned out to be 1320 M⁻¹ s⁻¹; on cathepsin G (Cath G) (Table 2), 750 M⁻¹ s⁻¹.

In the case of `Nc1ccc(O)c(C(=O)OCN2C(=O)C(Cc3ccccc3)CS2(=O)=O)c1` (stereo not drawn) [Compound 5], the kinact/KI was 470 M⁻¹ s⁻¹ in experiment [1] (Table 1A) and 3330 M⁻¹ s⁻¹ on cathepsin G (Cath G) (Table 1A).

As for `O=C1C(Cc2ccccc2)CS(=O)(=O)N1CS(=O)(=O)c1ccccc1` (stereo not drawn) [Compound 14D], on cathepsin G (Cath G) (Table 5), the “Cath G kobs/[I]” value came out at 960 M⁻¹ s⁻¹.

`O=C(C[S+]([O-])c1ccccc1)OCN1C(=O)C(Cc2ccccc2)CS1(=O)=O` (stereo not drawn) [Compound 4C]: the kinact/KI in experiment [1] (Table 4) was determined as 320 M⁻¹ s⁻¹; on cathepsin G (Cath G) (Table 4) it was 770 M⁻¹ s⁻¹.

Consider `CC(C)(C)OC(=O)N1CCC[C@H]1C(=O)OCN1C(=O)C(Cc2ccccc2)CS1(=O)=O` (stereo partly drawn) [Compound 6B], for which the kinact/KI in experiment [1] (Table 3) worked out at 170 M⁻¹ s⁻¹; on cathepsin G (Cath G) (Table 3), 590 M⁻¹ s⁻¹.

As for `CC(C(=O)OCN1C(=O)C(Cc2ccccc2)CS1(=O)=O)c1cccc(C(=O)c2ccccc2)c1` (stereo not drawn) [Compound 3], the values for the kinact/KI (in experiment [1] (Table 1A); on cathepsin G (Cath G) (Table 1A)) were 210 M⁻¹ s⁻¹ and 290 M⁻¹ s⁻¹, respectively.

Turning to `O=C1C(Cc2ccccc2)CS(=O)(=O)N1C(CF)S(=O)(=O)c1ccccc1` (stereo not drawn) [Compound 8, 4-Benzyl-2-(2-fluoro-1-phenylsulfonylethyl) isothiazolidin-3-one 1,1-dioxide], the second-order inactivation constant (kinact/KI) in experiment [1] (Table 1B) stood at 50 M⁻¹ s⁻¹; at cathepsin G (Cath G) (Table 1B), 420 M⁻¹ s⁻¹. Also, the “time-dependent loss of serine protease activity” value at cathepsin G (Cath G) (FIG. 5, Cath G 1.33 uM, inhibitor 133 uM, 0.1M HEPES pH 7.5, 10% DMSO) is recorded as “time-dependent loss of serine protease activity”.

For the compound `O=C(CSc1ccccc1)OCN1C(=O)C(Cc2ccccc2)CS1(=O)=O` (stereo not drawn) [Compound 3C], the figures for the kinact/KI (in experiment [1] (Table 4); on cathepsin G (Cath G) (Table 4)) were 1020 M⁻¹ s⁻¹ and 3340 M⁻¹ s⁻¹, respectively.

As to `O=C1[C@H](Cc2ccccc2)N(S(=O)(=O)c2ccccc2)S(=O)(=O)N1CS(=O)(=O)c1ccccc1` [Compound 1E], at cathepsin G (Cath G) (Table 6), the kinact/KI amounted to 830 M⁻¹ s⁻¹.

As to `O=C1C(Cc2ccccc2)CS(=O)(=O)N1CF` (stereo not drawn) [Compound 1D, 4-benzyl-2-(fluoromethyl)isothiazolidin-3-one 1,1 dioxide], the inactivation efficiency (kinact/KI) in experiment [1] (Table 5) came out at 160 M⁻¹ s⁻¹; on cathepsin G (Cath G) (Table 5), 2700 M⁻¹ s⁻¹.

As to `O=C(N[C@H](Cc1ccccc1)C(=O)OCN1C(=O)C(Cc2ccccc2)CS1(=O)=O)OCc1ccccc1` (stereo partly drawn) [Compound 3B], the results for the kinact/KI (in experiment [1] (Table 3); on cathepsin G (Cath G) (Table 3)) were 2300 M⁻¹ s⁻¹ and 160 M⁻¹ s⁻¹, respectively.

`O=C1C(Cc2ccccc2)CS(=O)(=O)N1CCl` (stereo not drawn) [Compound 2D]: the kinact/KI is 670 M⁻¹ s⁻¹ in experiment [1] (Table 5) and 2040 M⁻¹ s⁻¹ at cathepsin G (Cath G) (Table 5).

In the case of `CCCCN1[C@@H](Cc2ccccc2)C(=O)N(CS(=O)(=O)c2ccccc2)S1(=O)=O` [Compound 12E], the kinact/KI on cathepsin G (Cath G) (Table 6) came to 320 M⁻¹ s⁻¹.

As for `CC(C)(C)OC(=O)N[C@@H](Cc1ccccc1)C(=O)OCN1C(=O)C(Cc2ccccc2)CS1(=O)=O` (stereo partly drawn) [Compound 2B], the kinact/KI came to 680 M⁻¹ s⁻¹ in experiment [1] (Table 3) and 10 M⁻¹ s⁻¹ on cathepsin G (Cath G) (Table 3).

For the compound `O=C1[C@H](Cc2ccccc2)N(Cc2ccccc2)S(=O)(=O)N1CF` [Compound 3A, (S)-4.5-Dibenzyl-2-fluoromethyl-3-oxo-1,2,5-thiadiazolidine 1.1-dioxide], in experiment [1] (Table 2), the kinact/KI was found to be 930 M⁻¹ s⁻¹.

`O=C(N[C@@H](Cc1ccccc1)C(=O)OCN1C(=O)C(Cc2ccccc2)CS1(=O)=O)OCc1ccccc1` (stereo partly drawn) [Compound 1B]: the kinact/KI came out at 110 M⁻¹ s⁻¹ in experiment [1] (Table 3) and 20 M⁻¹ s⁻¹ at cathepsin G (Cath G) (Table 3).

As for `CC(C)C[C@H]1C(=O)N(CS(C)(=O)=O)S(=O)(=O)N1C` [Compound 18E], the kinact/KI in experiment [1] (Table 6) was 4590 M⁻¹ s⁻¹.

Regarding `C[C@@H](NC(=O)OC(C)(C)C)C(=O)OCN1C(=O)C(Cc2ccccc2)CS1(=O)=O` (stereo partly drawn) [Compound 10B], the kinact/KI in experiment [1] (Table 3) is 310 M⁻¹ s⁻¹; on cathepsin G (Cath G) (Table 3), 560 M⁻¹ s⁻¹.

In the case of `O=C(CS(=O)(=O)c1ccccc1)OCN1C(=O)C(Cc2ccccc2)CS1(=O)=O` (stereo not drawn) [Compound 5C], the kinact/KI came out at 340 M⁻¹ s⁻¹ in experiment [1] (Table 4) and 1050 M⁻¹ s⁻¹ at cathepsin G (Cath G) (Table 4).

Regarding `CC(C)C[C@H]1C(=O)N(CS(=O)(=O)c2ccccc2)S(=O)(=O)N1CC(=O)OC(C)(C)C` [Compound 5E], the kinact/KI in experiment [1] (Table 6) was 2020 M⁻¹ s⁻¹.

As to `CC(C)(C)OC(=O)N[C@H](Cc1ccccc1)C(=O)OCN1C(=O)C(Cc2ccccc2)CS1(=O)=O` (stereo partly drawn) [Compound 4B], the kinact/KI was 1140 M⁻¹ s⁻¹ in experiment [1] (Table 3) and 260 M⁻¹ s⁻¹ at cathepsin G (Cath G) (Table 3).

As to `CS(=O)(=O)CN1C(=O)C(Cc2ccccc2)CS1(=O)=O` (stereo not drawn) [Compound 15D], the kinact/KI at cathepsin G (Cath G) (Table 5) came to 2080 M⁻¹ s⁻¹.

With `O=C(CNC(=O)OCc1ccccc1)OCN1C(=O)C(Cc2ccccc2)CS1(=O)=O` (stereo not drawn) [Compound 11B], the figures for the kinact/KI (in experiment [1] (Table 3); at cathepsin G (Cath G) (Table 3)) were 220 M⁻¹ s⁻¹ and 2680 M⁻¹ s⁻¹, respectively.

Take `CC(C)(C)OC(=O)CN1[C@@H](Cc2ccccc2)C(=O)N(CS(=O)(=O)c2ccccc2)S1(=O)=O` [Compound 14E]: at cathepsin G (Cath G) (Table 6), the kinact/KI came to 1130 M⁻¹ s⁻¹.

As to `O=C(/C=C/c1ccccc1)OCN1C(=O)C(Cc2ccccc2)CS1(=O)=O` (stereo not drawn) [Compound 1C], the kinact/KI turned out to be 280 M⁻¹ s⁻¹ in experiment [1] (Table 4) and 3220 M⁻¹ s⁻¹ on cathepsin G (Cath G) (Table 4).

As to `O=C(/C=C\Sc1ccccc1)OCN1C(=O)C(Cc2ccccc2)CS1(=O)=O` (stereo not drawn) [Compound 6C], the kinact/KI in experiment [1] (Table 4) is 170 M⁻¹ s⁻¹; on cathepsin G (Cath G) (Table 4) it was 7270 M⁻¹ s⁻¹.

In the case of `C[C@H](NC(=O)OCc1ccccc1)C(=O)OCN1C(=O)C(Cc2ccccc2)CS1(=O)=O` (stereo partly drawn) [Compound 8B], the kinact/KI in experiment [1] (Table 3) worked out at 50 M⁻¹ s⁻¹; on cathepsin G (Cath G) (Table 3) it was 2770 M⁻¹ s⁻¹.

`C[C@@H](NC(=O)OCc1ccccc1)C(=O)OCN1C(=O)C(Cc2ccccc2)CS1(=O)=O` (stereo partly drawn) [Compound 9B]: the figures for the kinact/KI (in experiment [1] (Table 3); at cathepsin G (Cath G) (Table 3)) were 300 M⁻¹ s⁻¹ and 1820 M⁻¹ s⁻¹, respectively.

For the compound `CC(=O)Oc1ccccc1C(=O)OCN1C(=O)C(Cc2ccccc2)CS1(=O)=O` (stereo not drawn) [Compound 4], the kinact/KI in experiment [1] (Table 1A) stood at 830 M⁻¹ s⁻¹; on cathepsin G (Cath G) (Table 1A), 3000 M⁻¹ s⁻¹.

With `CC(C)Cc1ccc(C(C)C(=O)OCN2C(=O)C(Cc3ccccc3)CS2(=O)=O)cc1` (stereo not drawn) [Compound 1], the results for the kinact/KI (in experiment [1] (Table 1A); on cathepsin G (Cath G) (Table 1A)) were 160 M⁻¹ s⁻¹ and 240 M⁻¹ s⁻¹, respectively.

With `O=C1C(Cc2ccccc2)CS(=O)(=O)N1C[S+]([O-])c1ccccc1` (stereo not drawn) [Compound 13D], the kinact/KI at cathepsin G (Cath G) (Table 5) is 590 M⁻¹ s⁻¹.

With `O=C1[C@H](Cc2ccccc2)NS(=O)(=O)N1CS(=O)(=O)c1ccccc1` [Compound 10E], the kinact/KI at cathepsin G (Cath G) (Table 6) stood at 30 M⁻¹ s⁻¹.

As to `O=C1[C@H](Cc2ccccc2)NS(=O)(=O)N1CCl` [Compound 8E], the kinact/KI at cathepsin G (Cath G) (Table 6) turned out to be 30 M⁻¹ s⁻¹.

With `O=C1[C@H](Cc2ccccc2)NS(=O)(=O)N1CF` [Compound 1A, (S)-4-Benzyl-2-fluoromethyl-3-oxo-1,2,5-thiadiazolidine 1.1-dioxide], on cathepsin G (Cath G) (Table 2), the kinact/KI stood at 600 M⁻¹ s⁻¹.

For `CC(C)C[C@@H]1NS(=O)(=O)N(CS(=O)(=O)c2ccccc2)C1=O` [Compound 2E], the kinact/KI in experiment [1] (Table 6) worked out at 190 M⁻¹ s⁻¹.

Take `CC(C)C[C@H]1C(=O)N(CS(=O)(=O)c2ccccc2)S(=O)(=O)N1CC(=O)OCc1ccccc1` [Compound 4E]: the kinact/KI in experiment [1] (Table 6) is 1710 M⁻¹ s⁻¹.

On to `CC(C)C[C@H]1C(=O)N(CS(=O)(=O)c2ccccc2)S(=O)(=O)N1Cc1ccccc1` [Compound 17E], for which the kinact/KI on cathepsin G (Cath G) (Table 6) turned out to be 440 M⁻¹ s⁻¹.

As to `O=C1[C@H](Cc2ccccc2)N(C/C=C/c2ccccc2)S(=O)(=O)N1CS(=O)(=O)c1ccccc1` [Compound 15E], the kinact/KI at cathepsin G (Cath G) (Table 6) was determined as 760 M⁻¹ s⁻¹.

Regarding `CN1[C@@H](Cc2ccccc2)C(=O)N(CS(=O)(=O)c2ccccc2)S1(=O)=O` [Compound 11E], on cathepsin G (Cath G) (Table 6), the kinact/KI came to 130 M⁻¹ s⁻¹.

For the compound `CCCCN1[C@@H](CC(C)C)C(=O)N(CS(=O)(=O)c2ccccc2)S1(=O)=O` [Compound 16E], in experiment [1] (Table 6), the kinact/KI was found to be 10600 M⁻¹ s⁻¹.

One may read the kinact/KI as the second-order rate constant of inactivation.
